# Data taken from PMC7170309, “Imidazopyridine-fused [1,3]diazepinones: modulations of positions 2 to 4 and their impacts on the anti-melanoma activity” (Journal of Enzyme Inhibition and Medicinal Chemistry, 2020).
# How the values were obtained:
# [1] = test system: MDA-MB-435 melanoma cells; assay: Neutral red uptake (NRU) viability assay, MDA-MB-435; type: cell-based, human; conditions: Homo sapiens, MDA-MB-435; NRU assay, 72 h, mean ± SD of three experiments
# Protocol: Melanoma human cancer cell line (A375 and MDA-MB-435) were obtained from ATCC. The NIH-3T3 cell line was generously gifted by the ANSM (French National Agency for Medicines and Health Products Safety, Vendargues, France). Cells were cultured in Dulbecco’s Modified Eagle Medium (DMEM, Sigma Aldrich) supplemented with 10% heat-inactivated foetal calf serum (FCS, Gibco), 2 mM glutamax (Gibco), 100 IU/mL penicillin G sodium (Sigma Aldrich), 100 lU/mL streptomycin sulphate (Sigma Aldrich). The cells were allowed to grow at 37 °C in a fully humidified atmosphere containing 5% CO2.
# A viability assay was used to evaluate the cytotoxic activity on A375 and MDA-MB-435 melanoma cells as previously described. According to OCDE/ICCVAM guidance n°129, NRU assay was also used to evaluate the toxicity on the non-cancerous NIH-3T3 cells. Cells were seeded at a final concentration of 2000 cells/well (A375), 3000 cells/well (NIH-3T3) or 7500 cells/well (MDA-MB-435) in 96-well microtiter plates for 24 h. Then, cells were exposed to two negative controls (1% DMSO in culture medium (vehicle) and culture medium alone), or to different compounds freshly dissolved in DMSO, in a range of concentration from 0.01 to 40 µM (six wells per concentration). After 72 h of incubation, cells were stained with new medium containing 50 µg/mL of neutral red (3-amino-7-dimethylamino-2-methylphenazine hydrochloride, Sigma Aldrich) at 37 °C for 2 h. The neutral red medium solution was then removed and the wells were washed with PBS. Finally, 100 µL of solution containing ethanol, acetic acid and water (50/1/49 v/v/v respectively) were added into the wells and the absorbance was measured at 540 nm using the microplate reader 352 Multiscan MS (Labsystems). Cell survival rates were normalised to the absorbance values of untreated control cells. IC50 was obtained using a logistic regression model on Graphpad Prism 5.0 software. Results are given as the mean ± standard deviation (SD) of three independent experiments. Statistical analysis was performed using the Student’s t-test.
# MDA-MB-435 cells = assay: Immunofluorescent staining for actin localisation (confocal microscopy); type: cell-based, human; conditions: 5 µM, 20 h
# Protocol: To evaluate the effect of compound treatment on cell morphology and stress actin fibres, an immunofluorescence imaging of cells was performed as previously described. MDA-MB-435 cells were seeded on cover slips in petri dishes and allowed to grow for 24 h. After cell growth, cells were treated with the vehicule (control cells) or with JMV5038, compound 5 or 8 at 5 µM for 20 h. Then cells were fixed using Antigenfix for 20 min and permeabilized using 0.2% Triton X-100 for 4 min at room temperature. Actin was stained using a primary human anti-actin antibody (made from mouse) and a secondary Alexa Fluor 568-conjugated goat anti-mouse antibody. Both of them were incubated 1 h at room temperature. Nuclei were counter-stained using Hoechst 33342. Representative images were obtained using a Zeiss LSM 780 inverted confocal microscopy. Confocal fluorescence microscopy was performed on fixed cells under a 543 nm wavelength excitation for AlexaFluor568, and 405 nm for nuclei, and visualised at 620 nm (red) and 450 nm (blue) respectively.
# In our previous study, we reported that JMV5038 led to changes in the cell morphology, concomitant with a disruption of the actin network. Morphological changes in MDA-MB-435 cells induced by compounds 5 or 8 were investigated and compared to those induced by JMV5038. For this purpose, fixed and actin immunostained MDA-MB-435 cells were imaged by confocal microscopy (Figure 6). Control cells treated with DMSO (20 h, 5 µM concentration) were spread and the tensile forces of actin stress fibres stretched the cell-adhesive phenotype.
# A549/ATCC = assay: NCI-60 SRB assay, A549/ATCC (NSCLC); type: cell-based, human; conditions: 10 µM, 48 h; for G%: growth vs untreated control
# Protocol: (§1) Primary anticancer assay was performed on a panel of 60 human cancer cell lines derived from nine neoplastic diseases, in accordance with the protocol of the Drug Evaluation Branch, National Cancer Institute, Bethesda, Maryland, USA[22]. Cells were incubated with tested compounds at 10 µM for 48 h. The growth percentage was evaluated spectrophotometrically using a protein binding dye, SRB. Results for each tested compound were reported as the percent of growth of treated cells when compared to untreated control cells.
# (§2) To better compare the activity profile of these two series of compounds, compounds 5 and 8 were selected and then evaluated towards a panel of sixty cancer cell lines corresponding to nine different cancer types, i.e. leukaemia, melanoma, as well as lung, colon, central nervous system, ovarian, renal, prostate and breast cancers (NCI evaluation). Indeed, it is now well established that the growth inhibitory patterns of anticancer drugs against the NCI-60 cell line panel correlated well with their modes of action. For example, compounds that bind to tubulin have similar growth inhibition patterns regardless of which site on tubulin they bind[30]. […] Compounds were tested using the sulforhodamine B (SRB) assay that provides a direct cell density index. The amount of dye incorporated by the cells increases with the increase of the total protein biomass. Cells were incubated for 48 h with compounds at 10 µM concentration, then cell growth was evaluated spectrophotometrically and presented as the percent of untreated control cells. Values of the most sensitive cell lines were compared to those obtained with JMV5038 (Figure 4, for all data see SI).
# EKVX = assay: NCI-60 SRB assay, EKVX (NSCLC); type: cell-based, human; conditions: 10 µM, 48 h; for G%: growth vs untreated control
# Protocol: as §1, §2
# HOP-92 = assay: NCI-60 SRB assay, HOP-92 (NSCLC); type: cell-based, human; conditions: 10 µM, 48 h; for G%: growth vs untreated control;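 on Mean G% - G%: mean growth across the NCI-60 panel minus this line's growth with positive meaning more sensitive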
# Protocol: as §1, §2
# NCI-H23 = assay: NCI-60 SRB assay, NCI-H23 (NSCLC); type: cell-based, human; conditions: 10 µM, 48 h; for G%: growth vs untreated control
# Protocol: as §1, §2
# NCI-H460 = assay: NCI-60 SRB assay, NCI-H460 (NSCLC); type: cell-based, human; conditions: 10 µM, 48 h; for G%: growth vs untreated control
# Protocol: as §1, §2
# KM12 = assay: NCI-60 SRB assay, KM12 (Colon Cancer); type: cell-based, human; conditions: 10 µM, 48 h; for G%: growth vs untreated control
# Protocol: as §1, §2
# SW-620 = assay: NCI-60 SRB assay, SW-620 (Colon Cancer); type: cell-based, human; conditions: 10 µM, 48 h; for G%: growth vs untreated control
# Protocol: as §1, §2
# SNB-75 = assay: NCI-60 SRB assay, SNB-75 (CNS Cancer); type: cell-based, human; conditions: 10 µM, 48 h; for G%: growth vs untreated control
# Protocol: as §1, §2
# U251 = assay: NCI-60 SRB assay, U251 (CNS Cancer); type: cell-based, human; conditions: 10 µM, 48 h; for G%: growth vs untreated control
# Protocol: as §1, §2
# OVCAR-8 = assay: NCI-60 SRB assay, OVCAR-8 (Ovarian Cancer); type: cell-based, human; conditions: 10 µM, 48 h; for G%: growth vs untreated control;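 on Mean G% - G%: mean growth across the NCI-60 panel minus this line's growth with positive meaning more sensitive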
# Protocol: as §1, §2
# ACHN = assay: NCI-60 SRB assay, ACHN (Renal Cancer); type: cell-based, human; conditions: 10 µM, 48 h; for G%: growth vs untreated control
# Protocol: as §1, §2
# DU-145 = assay: NCI-60 SRB assay, DU-145 (Prostate Cancer); type: cell-based, human; conditions: 10 µM, 48 h; for G%: growth vs untreated control
# Protocol: as §1, §2
# MDA-MB-468 = assay: NCI-60 SRB assay, MDA-MB-468 (Breast Cancer); type: cell-based, human; conditions: 10 µM, 48 h; for G%: growth vs untreated control;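 on Mean G% - G%: mean growth across the NCI-60 panel minus this line's growth with positive meaning more sensitive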
# Protocol: as §1, §2
SMILES,IC50 [1] [µM],Mean G% - G% (A549/ATCC),G% (A549/ATCC),Mean G% - G% (HOP-92),G% (HOP-92),Mean G% - G% (NCI-H23),G% (NCI-H23),Mean G% - G% (NCI-H460),G% (NCI-H460),Mean G% - G% (KM12),G% (KM12),Mean G% - G% (SW-620),G% (SW-620),Mean G% - G% (SNB-75),G% (SNB-75),Mean G% - G% (U251),G% (U251),Mean G% - G% (OVCAR-8),G% (OVCAR-8),Mean G% - G% (ACHN),further results
"C[C@@H]1NC(c2ccc(N=[N+]=[N-])cc2)=Nc2nc3ccccn3c2C1=O [Compound 5, (4S)-4-methyl-2-(4-azidophenyl)-3,4-dihydro-5H-pyrido[1’,2’:1,2]imidazo[4,5-d][1,3]diazepin-5-one]",4.75 ± 0.21,"-3,81%","89,07%","-17,00%","102,26%","-1,81%","87,07%","-8,41%","93,67%","27,28%","57,98%","13,36%","71,90%","14,91%","70,35%","-13,85%","99,11%","-16,08%","101,34%","0,49%","morphological changes / actin network (MDA-MB-435 cells): disorganisation of the actin cytoskeleton; Mean G% - G% (EKVX): 3,45%; G% (EKVX): 81,81%; G% (ACHN): 84,77%; Mean G% - G% (DU-145): -18,38%; G% (DU-145): 103,64%; Mean G% - G% (MDA-MB-468): 11,88%; G% (MDA-MB-468): 73,38%; melting point: 235 to 236 °C (dec.)"
"C[C@@H]1NC(c2csc3ccccc23)=Nc2nc3ccccn3c2C1=O [Compound 8, (4S)-4-methyl-2-benzothiophen-3-yl-3,4-dihydro-5H-pyrido[1’,2’:1,2]imidazo[4,5-d][1,3]diazepin-5-one]",10.12 ± 0.08,"8,10%","66,77%","34,61%","40,26%","3,92%","70,95%","-10,32%","85,19%","4,90%","69,97%","-0,70%","75,57%","60,36%","14,51%","-12,47%","87,34%","-9,67%","84,54%","-4,72%","morphological changes / actin network (MDA-MB-435 cells): disorganisation of the actin cytoskeleton; Mean G% - G% (EKVX): 0,63%; G% (EKVX): 74,24%; G% (ACHN): 79,59%; Mean G% - G% (DU-145): 2,24%; G% (DU-145): 72,63%; Mean G% - G% (MDA-MB-468): 4,18%; G% (MDA-MB-468): 70,69%; melting point: 135 to 137 °C"
"[N-]=[N+]=NCCCC[C@@H]1NC(c2ccc(Br)cc2)=Nc2nc3ccccn3c2C1=O [Compound 16, (4S)-4-(4-azidobutyl)-2-(4-bromophenyl)-3,4-dihydro-5H-pyrido[1’,2’:1,2]imidazo[4,5-d][1,3]diazepin-5-one]",4.12 ± 0.22,"16,61%","75,16%","-11,05%","102,82%","-7,34%","99,11%","0,98%","90,79%","10,11%","81,66%","-0,19%","91,96%","4,12%","87,65%","0,74%","91,03%","6,78%","84,99%","3,57%","Mean G% - G% (EKVX): 12,19%; G% (EKVX): 79,58%; G% (ACHN): 88,20%; Mean G% - G% (DU-145): -10,18%; G% (DU-145): 101,95%; Mean G% - G% (MDA-MB-468): -6,46%; G% (MDA-MB-468): 98,23%; melting point: 127 to 128 °C"
C[C@@H]1NC(c2ccc(Br)cc2)=Nc2nc3ccccn3c2C1=O [JMV5038],1.3 ± 0.53,"-0,42%","54,66%","-5,24%","59,48%","0,57%","53,67%","21,74%","32,50%","24,69%","29,55%","16,28%","37,96%","4,08%","50,16%","0,29%","53,95%","-18,28%","72,52%","-14,97%","morphological changes / actin network (MDA-MB-435 cells): disorganisation of the actin cytoskeleton; G% (ACHN): 69,21%; Mean G% - G% (DU-145): -33,50%; G% (DU-145): 87,74%; Mean G% - G% (MDA-MB-468): 54,74%; G% (MDA-MB-468): -0,50%"
